Measured values as given in patent US20230135635A1, “INHIBITORS OF ULK1/2 AND METHODS OF USING SAME” (SALK INSTITUTE FOR BIOLOGICAL STUDIES, priority 2020, published 2023).

Target: T1, recombinant human ULK1 protein (1-649) (Homo sapiens, UniProt O75385)
T1 construct: recombinant human ULK1 protein (1-649, SignalChem #U01-11G); purchased SignalChem U01-11G
T1 sequence (O75385 1-649): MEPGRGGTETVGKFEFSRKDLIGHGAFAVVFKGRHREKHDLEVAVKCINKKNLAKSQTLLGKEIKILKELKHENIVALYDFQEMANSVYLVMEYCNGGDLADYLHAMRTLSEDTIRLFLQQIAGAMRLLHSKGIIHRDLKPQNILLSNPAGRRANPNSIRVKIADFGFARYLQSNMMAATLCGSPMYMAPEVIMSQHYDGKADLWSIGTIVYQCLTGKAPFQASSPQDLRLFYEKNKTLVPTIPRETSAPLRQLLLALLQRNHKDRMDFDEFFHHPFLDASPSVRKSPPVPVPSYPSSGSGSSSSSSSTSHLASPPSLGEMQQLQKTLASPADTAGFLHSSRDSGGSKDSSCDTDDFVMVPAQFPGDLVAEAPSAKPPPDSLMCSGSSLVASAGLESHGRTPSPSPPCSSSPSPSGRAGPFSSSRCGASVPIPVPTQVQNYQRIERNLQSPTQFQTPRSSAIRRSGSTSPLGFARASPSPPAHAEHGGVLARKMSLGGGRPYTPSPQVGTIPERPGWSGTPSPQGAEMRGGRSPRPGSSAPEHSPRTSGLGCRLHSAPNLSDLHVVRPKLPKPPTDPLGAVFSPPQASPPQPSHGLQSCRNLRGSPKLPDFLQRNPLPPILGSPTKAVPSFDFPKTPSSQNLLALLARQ
Test: ULK1 inhibition assay (ADP Glo)
Format: biochemical
Conditions: Table 1; 25 uM ATP, MBP substrate, one hour
Method: Illustrative compounds of Formula I and related analogs are shown in Table 1 (along with their respective IC50 values for ULK1 inhibition assays). For ADP Glo assay, IC50s are represented nM, with A representing IC50<1 nM, B representing 10 nM>IC50>1 nM, and C representing IC50>10 nM. NT indicates the compound was not tested. ULK1 inhibition assays were performed in a 5 uL reaction volume containing 2 ug/mL recombinant human ULK1 protein (1-649, SignalChem #U01-11G) and 80 ug/mL myelin basic protein (MBP, Sigma-Aldrich #M1891) in the presence of 25 uM ATP (Sigma-Aldrich A7699). ULK 1 inhibition was assessed after one hour. Compounds were tested in triplicate in a 16-dose IC50 mode with 3-fold serial dilution and a starting dose of 30 uM. Staurosporine, a non-selective protein kinase inhibitor, was used in the assay as a positive control.
According to another embodiment, the present disclosure provides methods of producing the above-defined compounds. The compounds may be synthesized using any suitable techniques. Advantageously, these compounds are conveniently synthesized from readily available starting materials. Synthetic chemistry transformations and methodologies useful in synthesizing the compounds described herein are known in the art and include, for example, those described in R. Larock, Comprehensive Organic Transformations (1989); T. W. Greene and P. G. M. Wuts, Protective Groups in Organic Synthesis, 2d. Ed. (1991); L. Fieser and M. Fieser, Fieser and Fieser's Reagents for Organic Synthesis (1994); and L. Paquette, ed., Encyclopedia of Reagents for Organic Synthesis (1995).). In general, synthesis and measurements of ULK1 inhibitory activity of the compounds described herein was performed using method analogous to those previously described in PCT International Application No. PCT/US2015/046777 which is hereby incorporated by reference in its entirety.

Row | Structure (SMILES) | IC50 [nM]
1 | CNC(=O)c1ccccc1Nc1nc(Nc2ccc3c(c2)CCN(C(=O)[C@@H](N)CO)C3)ncc1Br (racemic) [Compound A139, 2-{2-[2-(2-Amino-3-hydroxy-propionyl)-1,2,3,4-tetrahydro-isoquinolin-6-ylamino]-5-bromo-pyrimidin-4-ylamino}-N-methyl-benzamide] | > 10
2 | CNC(=O)c1ccccc1Nc1nc(Nc2ccc3c(c2)CN(C(=O)[C@@H](N)CO)CC3)ncc1Br (racemic) [Compound A154, 2-{2-[2-(2-Amino-3-hydroxy-propionyl)-1,2,3,4-tetrahydro-isoquinolin-7-ylamino]-5-bromo-pyrimidin-4-ylamino}-N-methyl-benzamide] | > 10
3 | N[C@@H](CO)C(=O)N1CCc2cc(Nc3ncc(C(F)(F)F)c(NC4CC4)n3)ccc2C1 (stereo in doubt) [Compound A57] | 1 to 10
4 | O=C(N1CCOCC1)N1CCc2cc(Nc3ncc(C(F)(F)F)c(NC4CC4)n3)ccc2C1 [Compound A2] | 1 to 10
5 | COC(=O)N1CCc2cc(Nc3ncc(C(F)(F)F)c(NC4CC4)n3)ccc2C1 [Compound A4] | 1 to 10
6 | CCNC(=O)N1CCc2cc(Nc3ncc(C(F)(F)F)c(NC4CC4)n3)ccc2C1 [Compound A6] | 1 to 10
7 | FC(F)(F)c1cnc(Nc2ccc3c(c2)CCN(C2COC2)C3)nc1NC1CC1 [Compound A9] | 1 to 10
8 | CCN(CC)C(=O)N1CCc2cc(Nc3ncc(C(F)(F)F)c(NC4CC4)n3)ccc2C1 [Compound A10] | 1 to 10
9 | CS(=O)(=O)N1CCc2cc(Nc3ncc(C(F)(F)F)c(NC4CC4)n3)ccc2C1 [Compound A12] | 1 to 10
10 | OCC(O)CN1CCc2cc(Nc3ncc(C(F)(F)F)c(NC4CC4)n3)ccc2C1 (stereo not drawn) [Compound A13] | > 10
11 | NC(=O)N1CCc2cc(Nc3ncc(C(F)(F)F)c(NC4CC4)n3)ccc2C1 [Compound A14] | 1 to 10
12 | CC(C)(C)OC(=O)N1CCc2ccc(Nc3ncc(C(F)(F)F)c(NC4CC4)n3)cc2C1 [Compound A15] | 1 to 10
13 | CC(C)(C)OC(=O)N1CCc2cc(Nc3ncc([N+](=O)O)c(NC4CC4)n3)ccc2C1 [Compound A21] | > 10
14 | CC(C)(C)OC(=O)N1CCc2cc(Nc3ncc(N)c(NC4CC4)n3)ccc2C1 [Compound A22] | > 10
15 | CNC(=S)Nc1cnc(Nc2ccc3c(c2)CCNC3)nc1NC1CC1 [Compound A24] | > 10
16 | NCC(=O)Nc1cnc(Nc2ccc3c(c2)CCNC3)nc1NC1CC1 [Compound A26] | > 10
17 | CCOC(=O)c1cnc(Nc2ccc3c(c2)CCN(C(=O)OC(C)(C)C)C3)nc1NC1CC1 [Compound A28] | > 10
18 | CC(C)(C)OC(=O)N1CCc2cc(Nc3ncc(C(=O)O)c(NC4CC4)n3)ccc2C1 [Compound A30] | > 10
19 | O=C(OCCO)c1cnc(Nc2ccc3c(c2)CCNC3)nc1NC1CC1 [Compound A33] | > 10

Row | Structure (SMILES) | IC50 [nM]
20 | O=C(NCCO)c1cnc(Nc2ccc3c(c2)CCNC3)nc1NC1CC1 [Compound A36] | > 10
21 | O=C(NCC(F)(F)F)c1cnc(Nc2ccc3c(c2)CCNC3)nc1NC1CC1 [Compound A38] | > 10
22 | NC(=O)CN1CCc2cc(Nc3ncc(C(F)(F)F)c(NC4CC4)n3)ccc2C1 [Compound A39] | > 10
23 | FC(F)(F)c1cnc(Nc2ccc3c(c2)CCN(CC2CCCN2)C3)nc1NC1CC1 (stereo not drawn) [Compound A40] | 1 to 10
24 | FC(F)(F)c1cnc(Nc2ccc3c(c2)CCN(CC2CCNC2)C3)nc1NC1CC1 (stereo not drawn) [Compound A43] | < 1
25 | CN(C)CCN1CCc2cc(Nc3ncc(C(F)(F)F)c(NC4CC4)n3)ccc2C1 [Compound A44] | < 1
26 | N#CCN1CCc2cc(Nc3ncc(C(F)(F)F)c(NC4CC4)n3)ccc2C1 [Compound A45] | < 1
27 | FC(F)(F)c1cnc(Nc2ccc3c(c2)CCN(Cc2ccco2)C3)nc1NC1CC1 [Compound A46] | < 1
28 | FC(F)(F)c1cnc(Nc2ccc3c(c2)CCN(Cc2cncnc2)C3)nc1NC1CC1 [Compound A49] | < 1
29 | COCCN1CCc2cc(Nc3ncc(C(F)(F)F)c(NC4CC4)n3)ccc2C1 [Compound A50] | < 1
30 | FC(F)(F)c1cnc(Nc2ccc3c(c2)CCN(C2CNC2)C3)nc1NC1CC1 [Compound A52] | < 1
31 | OCCN1CCc2cc(Nc3ncc(C(F)(F)F)c(NC4CC4)n3)ccc2C1 [Compound A53] | < 1
32 | CC(C)(C)OC(=O)C1Cc2ccc(Nc3ncc(C(F)(F)F)c(NC4CC4)n3)cc2C1 (stereo not drawn) [Compound A54] | 1 to 10
33 | CC(=O)CCN1CCc2cc(Nc3ncc(C(F)(F)F)c(NC4CC4)n3)ccc2C1 [Compound A56] | < 1
34 | NC(=O)CCN1CCc2cc(Nc3ncc(C(F)(F)F)c(NC4CC4)n3)ccc2C1 [Compound A58] | < 1
35 | Nc1cnc(Nc2ccc3c(c2)CCNC3)nc1NC1CC1 [Compound A59] | > 10
36 | CCN1CCc2cc(Nc3ncc(C(F)(F)F)c(NC4CC4)n3)ccc2C1 [Compound A60] | 1 to 10
37 | CN1CCc2cc(Nc3ncc(N)c(NC4CC4)n3)ccc2C1 [Compound A61] | > 10

The next lines start with the values.

Row | IC50 [nM] | Structure (SMILES)
38 | < 1 | N[C@@H](CC(=O)O)C(=O)N1CCc2cc(Nc3ncc(C(F)(F)F)c(NC4CC4)n3)ccc2C1 (racemic) [Compound A66]
39 | < 1 | O=C(O)C[C@H](NC(=O)OCc1ccccc1)C(=O)N1CCc2cc(Nc3ncc(C(F)(F)F)c(NC4CC4)n3)ccc2C1 (racemic) [Compound A67]
40 | < 1 | N[C@H](CO)C(=O)N1CCc2cc(Nc3ncc(C(F)(F)F)c(NC4CC4)n3)ccc2C1 (stereo in doubt) [Compound A48]
41 | < 1 | CN1CCc2cc(Nc3ncc(C(F)(F)F)c(NC4CC4)n3)ccc2C1 [Compound A1]
42 | < 1 | FC(F)(F)c1cnc(Nc2ccc3c(c2)CCN(Cc2ccncc2)C3)nc1NC1CC1 [Compound A3]
43 | < 1 | FC(F)(F)c1cnc(Nc2ccc3c(c2)CCN(CCN2CCOCC2)C3)nc1NC1CC1 [Compound A5]
44 | < 1 | O=C(O)CCN1CCc2cc(Nc3ncc(C(F)(F)F)c(NC4CC4)n3)ccc2C1 [Compound A7]
45 | < 1 | FC(F)(F)c1cnc(Nc2ccc3c(c2)CCN(Cc2ccccc2)C3)nc1NC1CC1 [Compound A8]
46 | < 1 | CSCCN1CCc2cc(Nc3ncc(C(F)(F)F)c(NC4CC4)n3)ccc2C1 [Compound A11]
47 | < 1 | FC(F)(F)c1cnc(Nc2ccc3c(c2)CNCC3)nc1NC1CC1 [Compound A16]
48 | < 1 | FC(F)(F)c1cnc(Nc2ccc3c(c2)CCN(CC2OCCO2)C3)nc1NC1CC1 [Compound A17]
49 | < 1 | CC(C)(O)CN1CCc2cc(Nc3ncc(C(F)(F)F)c(NC4CC4)n3)ccc2C1 [Compound A18]
50 | < 1 | O=C(O)CCC(=O)N1CCc2cc(Nc3ncc(C(F)(F)F)c(NC4CC4)n3)ccc2C1 [Compound A20]
51 | < 1 | FC(F)(F)c1cnc(Nc2ccc3c(c2)CCN(CCS)C3)nc1NC1CC1 [Compound A23]
52 | < 1 | NS(=O)(=O)N1CCc2cc(Nc3ncc(C(F)(F)F)c(NC4CC4)n3)ccc2C1 [Compound A25]
53 | < 1 | NCC(=O)N1CCc2cc(Nc3ncc(C(F)(F)F)c(NC4CC4)n3)ccc2C1 [Compound A27]
54 | < 1 | CC(C)(C)OC(=O)NCCC(=O)N1CCc2cc(Nc3ncc(C(F)(F)F)c(NC4CC4)n3)ccc2C1 [Compound A29]
55 | < 1 | NCCC(=O)N1CCc2cc(Nc3ncc(C(F)(F)F)c(NC4CC4)n3)ccc2C1 [Compound A31]
56 | < 1 | NCCN1CCc2cc(Nc3ncc(C(F)(F)F)c(NC4CC4)n3)ccc2C1 [Compound A34]
57 | < 1 | CNCC(=O)N1CCc2cc(Nc3ncc(C(F)(F)F)c(NC4CC4)n3)ccc2C1 [Compound A35]
58 | < 1 | CN1CCN(C(=O)N2CCc3cc(Nc4ncc(C(F)(F)F)c(NC5CC5)n4)ccc3C2)CC1 [Compound A37]
59 | < 1 | FC(F)(F)c1cnc(Nc2ccc3c(c2)CCN(CC2CNC2)C3)nc1NC1CC1 [Compound A41]
60 | < 1 | FC(F)(F)c1cnc(Nc2ccc3c(c2)CCN(Cc2cc[nH]c2)C3)nc1NC1CC1 [Compound A42]
